Where a name gives a salt, the structure may show the parent alone. Read-outs that look alike come from different tables or passages of the source.
How the values were obtained:
MYB mRNA = experiment: Splicing RT-qPCR assay, MYB canonical (CJ) and alternative (AJ) junction mRNA; type: cell-based, human; details: Homo sapiens; for IC50: canonical junction mRNA; for AC50: alternative junction mRNA, read-out: MYB AJ (AC50, increase in AJ mRNA)
In short: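 A673 or K562 cells were treated for 24 h at 37 °C with an 11-point 3-fold compound dilution series (top final 10 uM, DMSO ≤0.25%). Lysates then went to one-step TaqMan RT-qPCR quantifying canonical (CJ) and alternative-exon (AJ) junction transcripts, normalized to a housekeeping gene.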

Target C = experiment: HiBiT protein abundance assay, Target C (K562 HiBiT knock-in); type: cell-based, human; details: HiBiT knock-in cells, 24 hours
Procedure: Cells were maintained in IMDM with 10% FBS. Before the assay, cells were diluted with […] growth media (IMDM+1% FBS media) and were seeded in a 384-well plate at a density of 10000 cells/well (for each cell line listed in Table 6). Each compound was prepared as a 10-point 3-old serial dilution in DMSO with the top dose at a final concentration of 10 μM in the well. Unmodified K562 cells were added at the previously specified density with DMSO to serve as an assay baseline and positive control (PC) and DMSO only with the respective modified cell lines was added to the negative control (NC) columns. Final DMSO concentration was kept at or below 0.25%. Treated cell plates were placed in an incubator at 37° C. with 5% CO2 for 24 hours. After 24 hours, 25 μL of Complete HiBit Lytic reagent was added to each well at room temperature (e.g. one plate requiring 10 ml Lytic Buffer, 100 μL LgBiT Protein, 200 μL Lytic Substrate), shaken for 5 minutes at 600 RPM, then left to sit for 10 minutes for signal to stabilize before reading on a Spark Cyto plate reader (Tecan) with a 500 ms measurement time.
To determine compound effects on protein abundance of each target in Table 6, the percent response for each respective cell line was calculated at each compound concentration as follows:
For the normalized response at each concentration, a four-parameter logistical regression was fit to the data and the response was interpolated at the 50% value to determine a concentration for protein abundance at 50% (IC50) the untreated control.

[1] = qPCR panel, read-out: MYB CJ (decrease in CJ mRNA levels, IC50)
[2] = RT-qPCR, A673 or K562 cells, 24 hours treatment
[3] = RT-qPCR, A673 or K562 cells, 24 hours treatment, read-out: MYB CJ (IC50, decrease in CJ mRNA)

| Structure (SMILES) | IC50 (MYB mRNA; [1]) [nM] | IC50 (MYB mRNA; [3]) [nM] | IC50 (Target C) [nM] | AC50 (MYB mRNA; [2]) [nM] |
| --- | --- | --- | --- | --- |
| Cc1c(O)c(-c2ccc3c(Cl)c(N4CCNCC4)cnc3n2)cc2cn(C)nc12 [Compound 278, 5-[5-chloro-6-(piperazin-1-yl)-1,8-naphthyridin-2-yl]-2,7-dimethylindazol-6-ol] | < 100 | < 100 | 1000 to 10000 | < 100 |
| CN[C@@H]1CN(c2cnc3nc(-c4cc5cn(C)nc5c(C)c4O)ccc3c2)C[C@H]1C [Compound 126, 2,7-dimethyl-5-{6-[(3R,4S)-3-methyl-4-(methylamino)382pyrrolidine-1-yl]-1,8-naphthyridin-2-yl}indazol-6-ol] | 100 to 1000 | 100 to 1000 | 1000 to 10000 | 100 to 1000 |
| C[C@@H]1CN(c2cnc3nc(-c4cc(F)c5nn(C)cc5c4)cc(Cl)c3c2)CCN1 [Compound 295, 4-chloro-2-(7-fluoro-2-methylindazol-5-yl)-6-[(3R)-3-methylpiperazin-1-yl]-1,8-naphthyridine] | < 100 | < 100 | 100 to 1000 | 100 to 1000 |
| CN[C@H]1CN(c2cnc3nc(-c4cc5cn(C)nc5c(C)c4O)ccc3c2)C[C@H]1F [Compound 129, 5-{6-[(3R,4S)-3-fluoro-4-(methylamino)pyrrolidin-1-yl]-1,8-naphthyridin-2-yl}-2,7-dimethylindazol-6-ol] | 100 to 1000 | 100 to 1000 | 100 to 1000 | 100 to 1000 |
| C[C@@H]1CN(c2cnc3nc(-c4cc5cn(C)nc5c(F)c4O)cc(Cl)c3c2)C[C@@H](C)N1 [Compound 281] | < 100 | < 100 | 100 to 1000 | < 100 |
| CN(c1cnc2nc(-c3cc4cn(C)nc4c(F)c3O)cc(Cl)c2c1)[C@H]1CCNC1 [Compound 275] | < 100 | < 100 | 1000 to 10000 | < 100 |
| Cc1c(O)c(-c2cc(Cl)c3cc(N4CCNC(C)C4)cnc3n2)cc2cn(C)nc12 (stereo not drawn) [Compound 147] | 100 to 1000 | 100 to 1000 | 1000 to 10000 | 100 to 1000 |
| Cc1c(O)c(-c2cc(Cl)c3cc(N(C)[C@@H]4CCNC4)cnc3n2)cc2cn(C)nc12.Cl [Compound 293] | 100 to 1000 | 100 to 1000 | 1000 to 10000 | 100 to 1000 |
| CN1CCC[C@@H]2CN(c3cnc4nc(-c5cc6cn(C)nc6c(F)c5O)cc(Cl)c4c3)C[C@@H]21 [Compound 303] | 100 to 1000 | 100 to 1000 | 1000 to 10000 | 100 to 1000 |
| CN[C@H]1CN(c2cnc3nc(-c4cc5cn(C)nc5c(C)c4O)ccc3c2)C[C@H]1C [Compound 125, 2,7-dimethyl-5-{6-[(3R,4R)-3-methyl-4-(methylamino)379pyrrolidine-1-yl]-1,8-naphthyridin-2-yl}indazol-6-ol] | < 100 | < 100 | 100 to 1000 | < 100 |
| Cc1c(O)c(-c2ccc3c(C(F)(F)F)c(N4CCNCC4)cnc3n2)cc2cn(C)nc12 [Compound 302, 2,7-dimethyl-5-[6-(piperazin-1-yl)-5-(trifluoromethyl)-1,8-naphthyridin-2-yl]indazol-6-ol] | 100 to 1000 | 100 to 1000 | 1000 to 10000 | 100 to 1000 |
| Cc1cn2nc(-c3cnc4nc(C5CCNCC5)ccc4c3)cc(C)c2n1 [Compound 115, 6-(2,8-dimethylimidazo[1,2-b]pyridazin-6-yl)-2-(piperidin-4-yl)-1,8-naphthyridine] | 1000 to 10000 | 1000 to 10000 | 1000 to 10000 | 1000 to 10000 |
| CCNC1CCN(c2cnc3nc(-c4cc5cn(C)nc5c(C)c4O)ccc3c2)C1 (stereo not drawn) [Compound 122, 5-{6-[3-(ethylamino)pyrrolidin-1-yl]-1,8-naphthyridin-2-yl}-2,7-dimethylindazol-6-ol] | < 100 | < 100 | < 100 | < 100 |
| Cn1cc2cc(-c3ccc4cc(N5CC[C@H](NCC6CC6)C5)cnc4n3)c(O)c(F)c2n1 [Compound 136, 5-{6-[(3S)-3-[(cyclopropylmethyl)amino]326pyrrolidine-1-yl]-1,8-naphthyridin-2-yl}-7-fluoro-2-methylindazol-6-ol] | 100 to 1000 | 100 to 1000 | 100 to 1000 | < 100 |
| CNC(=O)c1cc(-c2cc3cn(C)nc3c(C)c2O)nc2ncc(N3CCNCC3)cc12 [Compound 150, 2-(6-hydroxy-2,7-dimethylindazol-5-yl)-N-methyl-6-(piperazin-1-yl)-1,8-naphthyridine-4-carboxamide] | > 10000 | > 10000 | > 10000 | > 10000 |
| CN[C@H]1CCN(c2cnc3nc(-c4cc5cn(C)nc5c(F)c4O)cc(Cl)c3c2)C1 [Compound 272] | < 100 | < 100 | < 100 | < 100 |
| Cc1c(O)c(-c2cc(C3CC3)c3cc(N4CCNCC4)cnc3n2)cc2cn(C)nc12 [Compound 144, 5-(4-cyclopropyl-6-(piperazin-1-yl)-1,8-naphthyridin-2-yl)-2,7-dimethyl-2H-indazol-6-ol bis(2,2,2-trifluoroacetate)] | 100 to 1000 | 100 to 1000 | 1000 to 10000 | 100 to 1000 |
| C[C@H]1CN(c2cnc3nc(-c4cc(F)c5nn(C)cc5c4)cc(Cl)c3c2)CCN1 [Compound 296] | < 100 | < 100 | 100 to 1000 | 100 to 1000 |
| CN(c1cnc2nc(-c3cc4cn(C)nc4c(F)c3O)cc(Cl)c2c1)[C@@H]1CCNC1 [Compound 276] | < 100 | < 100 | 100 to 1000 | < 100 |

More lines, main results first:

| IC50 (MYB mRNA; [1]) [nM] | IC50 (MYB mRNA; [3]) [nM] | IC50 (Target C) [nM] | Structure (SMILES) | AC50 (MYB mRNA; [2]) [nM] |
| --- | --- | --- | --- | --- |
| 1000 to 10000 | 1000 to 10000 | > 10000 | C[C@@H]1CN(c2cnc3nc(-c4ccc5nn(C)cc5c4)cc(Cl)c3c2)C[C@H](C)N1 [Compound 320, 4-chloro-6-[(3R,5S)-3,5-dimethylpiperazin-1-yl]-2-(2-methylindazol-5-yl)-1,8-naphthyridine] | 1000 to 10000 |
| 100 to 1000 | 100 to 1000 | 100 to 1000 | Cc1cn2nc(-c3ccc4cc(N5C[C@@H](C)N[C@@H](C)C5)cnc4n3)cc(C)c2n1 [Compound 330] | 100 to 1000 |
| 100 to 1000 | 100 to 1000 | 1000 to 10000 | Cc1cn2nc(-c3cc(Cl)c4cc(N5C[C@@H](C)N[C@@H](C)C5)cnc4n3)cc(C)c2n1 [Compound 335, 4-chloro-2-{2,8-dimethylimidazo[1,2-b]478pyridazine-6-yl}-6-[(3R,5S)-3,5-dimethylpiperazin-1-yl]-1,8-naphthyridine] | 100 to 1000 |
| 100 to 1000 | 100 to 1000 | 1000 to 10000 | C[C@@H]1CN(c2cnc3nc(-c4cc5cn(C)nc5c(F)c4O)cc(C4CC4)c3c2)C[C@H](C)N1 [Compound 305, 5-{4-cyclopropyl-6-[(3R,5S)-3,5-dimethylpiperazin-1-yl]-1,8-naphthyridin-2-yl}-7-fluoro-2-methylindazol-6-ol] | 100 to 1000 |
| 100 to 1000 | 100 to 1000 | 100 to 1000 | Cn1cc2cc(-c3ccc4cc(N5CC[C@@H](NCC6CC6)C5)cnc4n3)c(O)cc2n1 [Compound 313] | < 100 |
| 100 to 1000 | 100 to 1000 | 1000 to 10000 | C[C@@H]1CN(c2cnc3nc(-c4cc5cn(C)nc5cc4O)ccc3c2)C[C@H](C)N1 [Compound 343] | 100 to 1000 |
| < 100 | < 100 | 100 to 1000 | Cc1cn2nc(-c3cc(Cl)c4cc(N5C[C@H](C)N[C@@H](C)C5)cnc4n3)cc(C)c2n1 [Compound 336] | < 100 |
| < 100 | < 100 | 100 to 1000 | CCN[C@@H]1CCN(c2cnc3nc(-c4cc5cn(C)nc5cc4O)ccc3c2)C1 [Compound 310, 5-{6-[(3R)-3-(ethylamino)468pyrrolidine-1-yl]-1,8-naphthyridin-2-yl}-2-methylindazol-6-ol hydrochloride] | < 100 |
| < 100 | < 100 | 100 to 1000 | CN[C@H]1CCN(c2cnc3nc(-c4cc(C)c5nc(C)cn5n4)cc(Cl)c3c2)C1 [Compound 340] | 100 to 1000 |
| 100 to 1000 | 100 to 1000 | > 10000 | CN1CCC[C@H]2CN(c3cnc4nc(-c5cc6cn(C)nc6c(F)c5O)cc(Cl)c4c3)C[C@H]21 [Compound 304] | 100 to 1000 |
| < 100 | < 100 | < 100 | CCN[C@@H]1CCN(c2cnc3nc(-c4cc5cn(C)nc5cc4O)cc(Cl)c3c2)C1 [Compound 317] | < 100 |
